In article PMC10714399, “Open Source Antibiotics: Simple Diarylimidazoles Are Potent against Methicillin-Resistant Staphylococcus aureus” (ACS Infectious Diseases, 2023):
≈ marks a conversion by molar mass, not a printed value. Where “and” joins values, the source holds several entries; their conditions need not be identical. Identical values can stand only once. Like-named read-outs stand apart in the source and are kept apart here.

Assays:
[1] = tested on: PMM (primary mouse macrophages); assay: Toxicity against PMM; format: cell-based
Experimental: (§1) ADME and toxicity for compounds were measured according to procedures outlined in the manuscript submitted in parallel to this one;2 other procedures were used for those compounds analysed by Monash University (in vitro ADME) or UCL (toxicity), both described in the main

[2] = tested on: Enterococcus faecalis ATCC 51299 (vanA-positive; vancomycin-resistant); assay: In vitro antibacterial activity, MIC (UCL), VRE; format: cell-based
Experimental: Staphylococcus aureus NCTC 13373 (mecA-positive; methicillin-resistant, NCTC 13373) was supplied by the National Collection of Type Cultures (NCTC), Public Health England, United Kingdom. Other organisms, S. aureus ATCC 25923 (methicillin-susceptible) and Enterococcus faecalis ATCC 51299 (vanA-positive; vancomycin-resistant), were obtained from the American Type Culture Collection (ATCC) via LGC Standards, UK. A suspension of each organism was prepared from an overnight plate culture (tryptone soya agar) in phosphate-buffered saline (PBS) and adjusted to an absorbance reading at 600 nm of 0.1, which is approximately equivalent to 1 × 10^8 colony-forming units (CFU) per mL. The cultures were further diluted 1:100 in isosensitest broth (Oxoid, United Kingdom) before 100 μL was used to inoculate each well of a 96-well plate that contained diluted samples of the OSA series. Compounds were evaluated over a 2-fold dilution range from 32 to 0.03 μg/mL. Stocks of the samples were prepared in 100% DMSO at […] before being diluted in isosenstitest broth. The highest concentration of DMSO present was 2%, which has been previously shown not to inhibit the growth of the microorganisms (data not shown). […] Vancomycin was used as a quality control compound.

[3] = tested on: MRC-5SV2 (human lung fibroblast cell line); assay: Toxicity against MRC-5SV2; format: cell-based
Experimental: as §1

[4] = tested on: VSE; assay: In vitro antibacterial activity, MIC, VSE; format: cell-based
[5] = tested on: Staphylococcus aureus NCTC 13373 (mecA-positive; methicillin-resistant); assay: In vitro antibacterial activity, MIC (UCL School of Pharmacy assay), MRSA; format: cell-based; details: for MIC: Staphylococcus aureus
Method in brief: (§2)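 Broth microdilution MIC in isosensitest broth; inoculum from overnight tryptone soya agar culture suspended in PBS to A600 0.1 (~1 × 10^8 CFU/mL), then diluted 1:100. Compounds tested as 2-fold series from 32 to 0.03 μg/mL, DMSO at most 2%; vancomycin as quality control.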

[6] = tested on: S. aureus ATCC 25923 (methicillin-susceptible); assay: In vitro antibacterial activity, MIC (UCL), MSSA; format: cell-based, Staphylococcus aureus; details: for MIC: Staphylococcus aureus
Method in brief: as §2

Row | VRE MIC [2] [µg/mL] | VSE MIC [4] [µg/mL] | MRSA MIC [5] | MSSA MIC [6] [µg/mL] | SMILES | PMM TC50 [1] [µg/mL] | MRC5 TC50 [3] [µg/mL] | also measured
1 | – | – | – | – | c1ccc(-c2nc3ccccc3n2-c2ccc(N3CCOCC3)cc2)nc1 [OSA_000995] | – | – | PMM TC50 ([1]; PMM): 64 µM; MIC ([2]; read-out: VRE MIC (UCL)): > 32 µg/mL; MRC5 TC50 ([3]; MRC5 cells): 64 µM; MIC ([4]; read-out: VSE MIC (UCL)): > 32 µg/mL; MIC ([5]; UCL, read-out: MRSA MIC (UCL)): > 32 µg/mL; MIC ([6]; read-out: MSSA MIC (UCL)): > 32 µg/mL
2 | – | – | – | – | N#CCc1ccc(-n2c(-c3ccccn3)nc3ccccc32)cc1 [OSA_000996] | – | – | PMM TC50 ([1]; PMM): 64 µM; MIC ([2]; read-out: VRE MIC (UCL)): > 32 µg/mL; MRC5 TC50 ([3]; MRC5 cells): 64 µM; MIC ([4]; read-out: VSE MIC (UCL)): > 32 µg/mL; MIC ([5]; UCL, read-out: MRSA MIC (UCL)): > 32 µg/mL; MIC ([6]; read-out: MSSA MIC (UCL)): 32 µg/mL (≈ 103 µM)
3 | 16 | 16 | 8 µg/mL | 8 | Clc1ccn2c(-c3ccc4occc4c3)c(-c3ccccn3)nc2c1 [compound 985] | – | – | –
4 | – | – | – | – | Fc1ccc(-c2c(-c3ccccn3)nc3ccccn23)cn1 [compound 986] | – | – | MIC ([2]; read-out: VRE MIC): > 32 µg/mL; MIC ([4]; read-out: VSE MIC): > 32 µg/mL; activity against MRSA, in words [5]: inactive; MIC ([5]; read-out: MRSA MIC): > 32 µg/mL; MIC ([6]; read-out: MSSA MIC): > 32 µg/mL
5 | – | – | – | – | Fc1ccc(Nc2c(-c3ccccn3)nc3ccccn23)cc1 [compound 987] | 9.7 | 2.3 | MIC ([2]; read-out: VRE MIC): 32 µg/mL (≈ 105 µM); MIC ([4]; read-out: VSE MIC): 32 µg/mL (≈ 105 µM); MIC ([5]; read-out: MRSA MIC): 8 µg/mL (≈ 26.3 µM); MIC ([6]; read-out: MSSA MIC): 16 µg/mL (≈ 52.6 µM)
6 | – | – | – | – | Cc1ccc(Nc2c(-c3ccccn3)nc3ccccn23)cc1 [compound 988] | – | – | MIC ([2]; read-out: VRE MIC): 16 µg/mL (≈ 53.3 µM); MIC ([4]; read-out: VSE MIC): 16 µg/mL (≈ 53.3 µM); MIC ([5]; read-out: MRSA MIC): 4 µg/mL (≈ 13.3 µM); MIC ([6]; read-out: MSSA MIC): 4 µg/mL (≈ 13.3 µM)
7 | > 32 | > 32 | > 32 µg/mL and 32 µg/mL | > 32 | NC(=O)c1ccc(-n2c(-c3ccccn3)nc3ccccc32)cc1 [compound 989] | 20.1 | 20.1 | –
8 | > 32 | > 32 | > 32 µg/mL and 32 µg/mL | > 32 | N#Cc1ccc(-n2c(-c3ccccn3)nc3ccccc32)cc1 [compound 990] | 19.0 | 19.0 | –
9 | > 32 | > 32 | – | > 32 | c1ccc(-c2nc3ccccc3n2-c2ccc3occc3c2)nc1 [compound 991] | 12.0 | 19.9 | –
10 | > 32 | > 32 | > 32 µg/mL and 32 µg/mL | > 32 | c1ccc(-n2c(-c3ccccn3)nc3ccccc32)cc1 [compound 992] | 17.4 | 17.4 | –
11 | > 32 | > 32 | > 32 µg/mL and 32 µg/mL | > 32 | c1ccc(Cn2c(-c3ccccn3)nc3ccccc32)cc1 [compound 993] | 18.3 | 18.3 | –
12 | – | – | – | – | OC1CCn2c1nc(-c1ccccn1)c2-c1ccc2occc2c1 (stereo not drawn) [compound 997] | – | – | MIC ([2]; read-out: VRE MIC): > 32 µg/mL; MIC ([2]; read-out: VRE MIC (UCL)): > 32 µg/mL; MIC ([4]; read-out: VSE MIC): > 32 µg/mL; MIC ([4]; read-out: VSE MIC (UCL)): > 32 µg/mL; activity against MRSA, in words [5]: inactive; MIC ([5]; 16 h, read-out: MRSA MIC): > 32 µg/mL; MIC ([5]; UCL, read-out: MRSA MIC (UCL)): > 32 µg/mL; MIC ([5]; read-out: MRSA MIC): > 32 µg/mL; MIC ([6]; read-out: MSSA MIC): > 32 µg/mL; MIC ([6]; read-out: MSSA MIC (UCL)): > 32 µg/mL
13 | 32 | 16 | 8 µg/mL | 8 | COc1ccc2nc(-c3ccccn3)c(N(C)c3cc(F)cc(F)c3)n2c1 [compound 998] | – | – | –
14 | 8 | 8 | 2 µg/mL | 8 | COc1ccnc(-c2nc3cc(OC)ccn3c2N(C)c2ccc(F)cc2)c1 [compound 1000] | – | – | –
